Test results taken from patent publication US20160137630A1, “INDUCTION OF GATA2 BY HDAC1 AND HDAC2 INHIBITORS” (ACETYLON PHARMACEUTICALS, INC., priority 2014, published 2016).
Entries after “also recorded” stand apart in the source; their conditions may differ. Like-named read-outs stand apart in the source and are kept apart here.

Assays:
HbD promoter = assay: Gata2 binding at the β-like globin gene cluster (ChIP-seq, ChIP-QPCR); type: cell-based
Source text: The tight temporal correlation between Gata2 and HbG activation following HDAC1/2 inhibition argues that Gata2 may affect the beta-globin locus directly. […] In FIG. 8C, the ChIP-seq results in FIG. 8A were validated in a second experimental series using QRT-PCR and two primer sets directed to the delta globin promoter. A primer set at the beta globin promoter was used as a control. […] This region is suspected in playing a role in switching from fetal to adult globin during development, as naturally occurring deletions of this region are associated with elevated fetal hemoglobin in adults (Sankaran V G, Xu J, Byron R, et al. A functional element necessary for fetal hemoglobin silencing. The New England journal of medicine. 2011; 365(9):807-814.).
To investigate this possibility, the β-like globin gene cluster was looked at in the Gata2 ChIP-seq data described above.

[1] = tested on: human bone marrow mononuclear cells; assay: colony formation assays; conditions: 1 μM
sickle donor cells = assay: HbG induction in sickle donor cells; type: cell-based; conditions: peripheral blood mononuclear cells from four different donors; FIG. 11B
Source text: Then, the cells from each donor were differentiated by exposure to either vehicle (control) or Compound 001. RNA samples of HbG were taken from each group of donor cells at days 0, 3, and 5.

[2] = tested on: K562 erythroleukemia cells; assay: Gata2 mRNA in K562 cells; type: cell-based; conditions: 3 days, FIG. 3
[3] = tested on: BFU-E colonies derived from human bone marrow mononuclear cells; assay: % HbG mRNA in BFU-E colonies; type: cell-based; conditions: FIG. 18A
Source text: Increases in % HbG resulting from HDAC1/2 inhibition were due to increased HbG and decreased HbB (FIGS. 18B, 21D and 21E).

[4] = tested on: erythroblasts derived from CD34+ cells isolated from human bone marrow; assay: QRT-PCR time course of mRNA expression during erythroid differentiation; type: cell-based
Source text: Gata2 mRNA was induced while Gata1 mRNA was unaffected. The culture system was as described by Sankaran et al., “Human fetal hemoglobin expression is regulated by the developmental stage-specific repressor BCL11A”, Science, vol. 322(5909), pp. 1839-42 (2008).
Gata2 mRNA was induced while Gata1 mRNA was unaffected. The culture system as described by Bradner et al., PNAS, vol. 107(28), pp. 12617-22 (2010). […]
The cells were then differentiated by exposure to either vehicle or Compound 001. RNA was measured at days 0, 2, 3, 4, 5, 6, and 8.
Gata1 increased and Gata2 decreased in control cells during the 5 days differentiation period, a result consistent with the known expression pattern of these genes during erythropoiesis (FIG. 1C).

HDACs 4-9 = assay: in vitro HDAC inhibition assay, HDACs 4-9; type: biochemical; conditions: concentrations as high as 20 μM; FIG. 20
HbG mRNA = assay: % HbG mRNA induction in 2-phase culture systems CS1 and CS2; type: cell-based, human
Source text: Then, the cells were differentiated by exposure to either vehicle (control) or Compound 001. RNA samples of HbG were taken at days 0, 3, 5, and 8. […] Staining cells with a FITC-conjugated anti-HbF antibody and flow cytometry was used to measure induction of fetal hemoglobin.

[5] = tested on: histone acetylation (H3K9/14ac, H3K56ac, H3K79ac, H2BK5ac); assay: histone acetylation levels by western blot; conditions: 1 and 5 μM, FIG. 9B
HbE mRNA = HbE mRNA levels in peripheral blood of rats; type: in vivo; conditions: rat, 10 and 30 mg/kg; FIG. 27A-B
Experimental: I. A. Rats were dosed once daily by oral gavage for 6 consecutive days at 0 mg/kg, 10 mg/kg, or 30 mg/kg per dose (See FIG. 25A). Dosing days are indicated by a down arrow (FIG. 25A). Peripheral blood was drawn on the indicated days and analyzed for drug level in plasma (PK), complete blood counts (CBC), or isolation of total ribonucleic acid (RNA). […] For each individual rat, HbE mRNA was expressed relative to HbB mRNA and then normalized to their predose level (time=day 0). Points are the average of n=4 animals with error bars showing the standard deviation (FIG. 27A).

Gata2 regulatory regions = assay: ChIP-QPCR of histone acetylation at Gata2 regulatory regions; type: cell-based
Source text: In chromatin state maps these histone modifications, especially H3K9ac and H3K27ac, have been associated with active regulatory regions, such as enhancers and promoters of actively transcribed genes. The differentiation profile was unaffected by compound treatment and similar to that of cells used in experiments above (FIG. 23B).

HDAC1 = HDAC1 (Homo sapiens, UniProt Q13547); assay: in vitro biochemical HDAC inhibition assay
[6] = 1 μM for 6 days, culture conditions supporting late erythroblasts, FIG. 1C
[7] = 1 μM for 8 days, culture conditions supporting early erythroblasts, FIG. 1B

Sequence of HDAC1 (Q13547 whole entry): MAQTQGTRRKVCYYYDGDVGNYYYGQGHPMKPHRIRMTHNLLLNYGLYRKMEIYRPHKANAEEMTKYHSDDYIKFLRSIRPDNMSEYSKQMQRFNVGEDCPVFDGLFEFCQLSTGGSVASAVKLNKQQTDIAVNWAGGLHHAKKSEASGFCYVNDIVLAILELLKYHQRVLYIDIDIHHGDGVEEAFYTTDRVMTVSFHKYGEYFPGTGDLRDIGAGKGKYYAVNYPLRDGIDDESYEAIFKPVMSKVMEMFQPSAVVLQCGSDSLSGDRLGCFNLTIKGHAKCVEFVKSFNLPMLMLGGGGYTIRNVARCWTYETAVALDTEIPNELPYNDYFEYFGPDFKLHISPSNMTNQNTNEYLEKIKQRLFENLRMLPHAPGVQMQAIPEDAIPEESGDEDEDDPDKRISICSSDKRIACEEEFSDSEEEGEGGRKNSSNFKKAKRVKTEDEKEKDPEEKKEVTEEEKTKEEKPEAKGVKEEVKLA

## Nc1ccc(-c2cccs2)cc1NC(=O)c1ccc2nc(N3CCNCC3)ccc2c1 [Compound 001, N-(2-amino-5-(thiophen-2-yl)phenyl)-2-(piperazin-1-yl)quinoline-6-carboxamide]
HbD promoter; ChIP-seq
  increase in Gata2 binding at the HbD promoter region: 1.8 fold
HbD promoter; independent ChIP-QPCR experiment
  increase in Gata2 binding at the HbD promoter: 2 fold
[1]
  number of CFU-E colonies: no effect
  number of CFU-GM colonies: no effect
  number of CFU-MK colonies: significantly suppressed
  size and number of BFU-E colonies: no effect
Sickle donor cells
  HbG: induced HbG
[2]
  Gata2 mRNA: dose dependent response
[3]
  % HbG: increased % HbG in a dose-dependent manner
[4]; [6]
  Gata1 mRNA: unaffected
  Gata2 mRNA: induced
[4]; [7]
  Gata1 mRNA: unaffected
  Gata2 mRNA: induced
[4]; QPCR, FIG. 1N
  Klf1 mRNA: unaffected
[4]; QRT-PCR time course
  decrease in Bcl11a mRNA: 2 fold
  decrease in Sox6 mRNA: 10 fold
  increase in Gata2 mRNA: 8 fold
[4]; day 2
  Gata2 increase relative to control cells: 2 fold
[4]; day 5
  Gata2 increase relative to control cells: 5 fold
HDACs 4-9
  inhibition of HDACs 4-9: negligible inhibitory activity; also recorded: no inhibition
HbG mRNA; 1 μM, increased from 10%
  % HbG: 46%
HbG mRNA; differentiation phase, both culture systems, FIG. 10B, 21A-C
  induction in % HbG: dose- and time-dependent induction
[5]
  histone acetylation (H3K9/14ac, H3K56, H3K79ac, H2BK5ac): dose-dependent accumulation of acetylation
HbE mRNA
  HbE mRNA relative to HbB mRNA, normalized to predose: dose-dependent increase
Gata2 regulatory regions; +9.5 kb and −3.9 kb regions
  increase in histone H3K9, H2BK5, and H3K27 acetylation: 3 fold
Gata2 regulatory regions; −1.8 kb and −2.8 kb regulatory regions
  increase in histone H3K9, H2BK5, and H3K27 acetylation: 6 fold
HDAC1; Table 2, read-out: IC50 HDAC1
  IC50: 4 nM
HDAC1; pre-incubation time of 24 hours, FIG. 9A, 17B, read-out: IC50 against HDAC1
  IC50: 7 nM
